# Test results from the supplement of paper PMC11368000.
# Columns and labels:
# Settings in all cases: exposure time: 90 min
# 1516 [1] = donor line of iPSC-derived cardiomyocytes; test: POD (EC05) for decrease in beat frequency (negative chronotrope) vs vehicle; higher = less potent (higher point of departure)
# Method: (§1)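 Human iPSC-derived cardiomyocytes from 16 donors were exposed for 90 min at 37 °C to each PFAS at 0.1, 1, 10 and 100 µM in 0.5% DMSO, 384-well plates. Kinetic Ca2+ flux (FLIPR) and Hoechst nuclei counts were normalised to vehicle wells and fitted with a hierarchical Bayesian Hill model to give donor-specific PODs: EC05 for beat-rate increase or decrease and for decay-to-rise ratio increase (QT proxy), EC95 for peak-frequency loss (asystole), EC10 for total cell number loss. 0.03 µM is the lower bound.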
# 1531 [2] = donor line of iPSC-derived cardiomyocytes; test: as above
# Method: as §1
# 1535 = donor line of iPSC-derived cardiomyocytes; test: as above
# Method: as §1
# 1518 [3] = donor line of iPSC-derived cardiomyocytes; test: as above
# Method: as §1
# 1118 [4] = donor line of iPSC-derived cardiomyocytes; test: as above
# Method: as §1
# 20032 = donor line of iPSC-derived cardiomyocytes; test: as above
# Method: as §1
# 11235 = donor line of iPSC-derived cardiomyocytes; test: as above
# Method: as §1
# 1368 = donor line of iPSC-derived cardiomyocytes; test: as above
# Method: as §1
# 30171 = donor line of iPSC-derived cardiomyocytes; test: as above
# Method: as §1
# 1309 [5] = donor line of iPSC-derived cardiomyocytes; test: as above
# Method: as §1
# 30145 = donor line of iPSC-derived cardiomyocytes; test: as above
# Method: as §1
# 1565 [6] = donor line of iPSC-derived cardiomyocytes; test: as above
# Method: as §1
# 20084 = donor line of iPSC-derived cardiomyocytes; test: as above
# Method: as §1
# 1516 [7] = test: POD (EC95) for loss of peak frequency (asystole) vs vehicle; higher = less potent (higher point of departure)
# Summary of the method: (§2)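 Ca2+ flux in human iPSC-derived cardiomyocytes from 16 donors was recorded on a FLIPR Tetra for 100 s before and after a 90 min exposure at 37 °C to 0.1, 1, 10 and 100 µM (final, 0.5% DMSO). Donor-specific points of departure came from hierarchical Bayesian Hill fits to vehicle-normalised beat frequency, decay-to-rise ratio or peak frequency. A 5% change served as threshold, except for peak frequency, where it was a 95% loss.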
# 1531 [8] = test: as above
# Summary of the method: as §2
# 1518 [9] = test: as above
# Summary of the method: as §2
# 1118 [10] = test: as above
# Summary of the method: as §2
# 1392 = donor line of iPSC-derived cardiomyocytes; test: as above
# Summary of the method: as §2
# 1309 [11] = test: as above
# Summary of the method: as §2
# 1565 [12] = test: as above
# Summary of the method: as §2
SMILES,POD vs vehicle 1516 [1],POD vs vehicle 1531 [2],POD vs vehicle 1535,POD vs vehicle 1518 [3],POD vs vehicle 1118 [4],POD vs vehicle 20032,POD vs vehicle 11235,POD vs vehicle 1368,POD vs vehicle 30171,POD vs vehicle 1309 [5],POD vs vehicle 30145,POD vs vehicle 1565 [6],POD vs vehicle 20084,POD vs vehicle 1516 [7],POD vs vehicle 1531 [8],POD vs vehicle 1518 [9],POD vs vehicle 1118 [10],POD vs vehicle 1392,POD vs vehicle 1309 [11],POD vs vehicle 1565 [12]
"O=S(=O)(OCC(F)(F)F)C(F)(F)C(F)(F)C(F)(F)C(F)(F)F [2,2,2-Trifluoroethyl_perfluorobutanesulfonate]",> 100 µM,> 100 µM,> 100 µM,> 100 µM,> 100 µM,> 100 µM,> 100 µM,> 100 µM,49.1 µM,> 100 µM,> 100 µM,> 100 µM,> 100 µM,> 100 µM,> 100 µM,> 100 µM,> 100 µM,> 100 µM,> 100 µM,> 100 µM
O=C(O)CCC(F)(F)C(F)(F)C(F)(F)F [3:3 Fluorotelomer carboxylic acid],> 100 µM,> 100 µM,> 100 µM,> 100 µM,> 100 µM,> 100 µM,> 100 µM,> 100 µM,> 100 µM,> 100 µM,> 100 µM,> 100 µM,> 100 µM,> 100 µM,> 100 µM,> 100 µM,> 100 µM,> 100 µM,> 100 µM,> 100 µM
"O=C(O)CCC(F)(F)C(F)(F)C(F)(F)C(F)(F)C(F)(F)F [2H,2H,3H,3H-Perfluorooctanoic_acid]",21.1 µM,24.9 µM,75.1 µM,> 100 µM,20 µM,29.8 µM,16.9 µM,> 100 µM,21.8 µM,37.7 µM,22.2 µM,> 100 µM,20 µM,75.1 µM,92.7 µM,> 100 µM,67.4 µM,73 µM,> 100 µM,> 100 µM
OCCC(F)(F)C(F)(F)C(F)(F)C(F)(F)C(F)(F)C(F)(F)C(F)(F)C(F)(F)F [8:2 Fluorotelomer alcohol],> 100 µM,> 100 µM,> 100 µM,> 100 µM,> 100 µM,> 100 µM,> 100 µM,> 100 µM,> 100 µM,> 100 µM,> 100 µM,> 100 µM,> 100 µM,> 100 µM,> 100 µM,> 100 µM,> 100 µM,> 100 µM,> 100 µM,> 100 µM
O=S(=O)([O-])C(F)(F)C(F)(F)C(F)(F)C(F)(F)F.[K+] [Potassium_perfluorobutanesulfonate],> 100 µM,> 100 µM,> 100 µM,> 100 µM,33.8 µM,> 100 µM,67.8 µM,> 100 µM,> 100 µM,> 100 µM,> 100 µM,> 100 µM,> 100 µM,> 100 µM,> 100 µM,> 100 µM,> 100 µM,> 100 µM,> 100 µM,> 100 µM
